Patent US8357529B2, “Methods of in vitro protein synthesis” (The Board of Trustees of the Leland Stanford Junior …, priority 2002, dated 2013)
Read-outs that look alike come from different tables or passages of the source.

Tests used:
Format in all cases: biochemical, Escherichia coli
[1] = test system: protein synthesis in E. coli S30 extract, PANOx system; assay: Cell-free protein synthesis in the PANOx system (standard reaction mixture)
Description: A standard reaction mixture for a coupled transcription-translation reaction, herein referred to as the PANOx system (Kim and Swartz (2001), supra.) contains the following components: 57 mM HEPES-KOH (pH7.5), 1.2 mM ATP, 0.85 mM each of GTP, UTP and CTP, 1 mM DTT, 200 mM potassium glutamate, 80 mM ammonium acetate, 16 mM magnesium acetate, 34 μg/ml folinic acid, 170.6 μg/ml E. coli tRNA mixture, 13.3 μg/ml plasmid, 100 μg/ml T7 RNA polymerase, 2 mM each of 20 unlabeled amino acids, 11 μM [^14C]leucine, 2% Poly(ethylene glycol) 8000, 33 mM PEP, 0.33 mM nicotinamide adenine dinucleotide, 0.26 mM Coenzyme A, 2.7 mM sodium oxalate and 0.24 volumes of S30 extract. Prokaryotic cell-free protein synthesis is performed using a crude S30 extract derived from Escherichia coli K12 (strain A19 ΔtonA ΔtnaA ΔspeA ΔendA met+), with slight modifications from the protocol of Pratt, J. M. 1984. (Coupled transcription-translation in prokaryotic cell-free systems. In Transciption and translation: a practical approach. Hanes, B. D., and S. J. Higgins. (Eds.). p. 179-209. IRL Press, New York.) T7 RNA polymerase was prepared from E. coli strain BL21 (pAR1219) according to the procedures of Davanloo et al. 1984. (Cloning and expression of the gene for bacteriophage T7 RNA polymerase. Proc Natl Acad Sci USA 81:2035-2039.)
(§1) Reactions were incubated at 37° C. for 5-6 hours. The amount of synthesized protein is estimated from the measured TCA-insoluble radioactivities using a liquid scintillation counter (Beckman LS3801). (Kim et al. 1996). Soluble protein yields were determined as previously described. (Kim and Swartz 2000).

[2] = test system: CAT expression in E. coli S30 extract cell-free protein synthesis
Description: as §1

[3] = test system: oxidative phosphorylation (electron transport chain); assay: CAT synthesis in new system with inhibitor of oxidative phosphorylation, oxygen or argon headspace; conditions: 20 μl batch, 37° C., 5 hours
Description: In seeking to understand how this yield was accomplished, inhibitors of oxidative phosphorylation were tested to establish that this process was partially responsible for the protein production capability of this new technology. […] HQNO inhibits the electron transport chain part of oxidative phosphorylation. All cases are 20 μl batch reactions, and were incubated at 37° C. for 5 hours. The head spaces of the batch reactors were filled with either oxygen or argon, an inert gas. […]. Furthermore, protein synthesis should be unaffected upon the addition of HQNO in the cases where argon is present and oxygen is not available.

With `N#CC(C#N)=NNc1cccc(Cl)c1` [carbonyl-cyanide-m-chlorophenylhydrazone] the “protein synthesis yields in the PANOx system with inhibitor of oxidative phosphorylation” value ([1]; PANOx system) was “unaffected”.

In the case of `[N-]=[N+]=[N-]` [azide], the “protein synthesis yields in the PANOx system with inhibitor of oxidative phosphorylation” value [1] is reported as “unaffected”.

With `CC(=O)[O-].CC(=O)[O-].[Mg+2]` [magnesium acetate] the “optimal magnesium value in the standard reaction mixture” value [1] was 19.3 mM.

For `N[C@@H](CCC(=O)[O-])C(=O)[O-].[Mg+2]` [magnesium glutamate], the “optimal magnesium value in the standard reaction mixture” value ([1]; standard reaction mixture, includes Mg from cell extract) was 23.3 mM.

In the case of `[Mg+2]` [magnesium], the “optimum magnesium concentration for protein expression” value ([2]; new environment, with 33 mM sodium pyruvate, includes Mg from cell extract) is reported as “approximately 11 mM”.

In the case of `CC(C)(COP(=O)(O)OP(=O)(O)OC[C@H]1O[C@@H](n2cnc3c(N)ncnc32)[C@H](O)[C@@H]1OP(=O)(O)O)[C@@H](O)C(=O)NCCC(=O)NCCS` [CoA, Coenzyme A], the “effect of removal of the cofactor on relative protein production” value ([2]; Cytomim system, CAT, 15 μl, 6 hours) is reported as “no significant effect”.

In the case of `O=C(CC(=O)C(F)(F)F)c1cccs1` [thenoyltrifluoroacetone], the “protein synthesis yields in the PANOx system with inhibitor of oxidative phosphorylation” value ([1]; PANOx system) is reported as “unaffected”.

`O=[N+]([O-])c1ccc(O)c([N+](=O)[O-])c1` [2,4-dinitrophenol] was tested, and the “protein synthesis yields in the PANOx system with inhibitor of oxidative phosphorylation” value ([1]; PANOx system) was “unaffected”.

`CCCCCCCc1cc(O)c2ccccc2[n+]1[O-]` [HQNO, 2-heptyl-4-hydroxyquinoline-N-oxide] was tested, and the “CAT synthesis after inhibitor addition” value ([3]; argon headspace) was “unaffected” and the “CAT synthesis after inhibitor addition” value ([3]; presence of oxygen, with or without pyruvate) was “substantially decreases”.
